Measured values: ChEMBL document CHEMBL3232849, “Structure-activity relationship studies toward the discovery of selective apelin receptor agonists” (J Med Chem, 2014)
Calls of active or inactive are those of the source. The calls are words filed in the database; no cut-off is given here.

Columns and labels:
[1] = target: T1, Apelin receptor (Rattus norvegicus) (UniProt Q9JHG3); test: Agonist activity at rat apelin receptor expressed in CHO cell membranes coexpressing EGFP assessed as receptor internalization at 100 nM after 20 mins by confocal microscopic analysis; assay type: cell-based
T1 sequence (whole entry): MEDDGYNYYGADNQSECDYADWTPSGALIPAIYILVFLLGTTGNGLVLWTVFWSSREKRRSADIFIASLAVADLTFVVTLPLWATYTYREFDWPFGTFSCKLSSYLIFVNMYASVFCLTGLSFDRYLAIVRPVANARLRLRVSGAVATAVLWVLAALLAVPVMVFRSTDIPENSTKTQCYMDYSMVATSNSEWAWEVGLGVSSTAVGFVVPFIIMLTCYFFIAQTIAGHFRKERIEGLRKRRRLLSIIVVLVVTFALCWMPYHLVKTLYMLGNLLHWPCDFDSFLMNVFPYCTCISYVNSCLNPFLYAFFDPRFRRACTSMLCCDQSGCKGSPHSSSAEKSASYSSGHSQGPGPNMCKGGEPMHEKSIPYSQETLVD

[2] = target: T2, Type-1 angiotensin II receptor (Homo sapiens, UniProt P30556); test: Displacement of [125I]-angiotensin 2 from human angiotensin 2 type-1 receptor expressed in CHO cell membranes after 1 hr by gamma counting analysis
T2 sequence (P30556 whole entry): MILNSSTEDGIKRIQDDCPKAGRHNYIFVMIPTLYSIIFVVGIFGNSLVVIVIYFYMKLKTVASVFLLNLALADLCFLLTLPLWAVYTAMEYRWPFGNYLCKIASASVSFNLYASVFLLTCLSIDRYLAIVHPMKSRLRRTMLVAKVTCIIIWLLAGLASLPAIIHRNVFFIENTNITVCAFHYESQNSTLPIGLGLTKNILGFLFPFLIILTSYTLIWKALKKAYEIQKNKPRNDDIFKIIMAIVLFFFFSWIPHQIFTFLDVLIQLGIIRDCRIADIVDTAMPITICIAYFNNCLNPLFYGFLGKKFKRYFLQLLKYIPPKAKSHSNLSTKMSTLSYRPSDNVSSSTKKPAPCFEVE

[3] = target: T1, Apelin receptor (Rattus norvegicus); test: (§1) Agonist activity at rat apelin receptor expressed in CHO cell membranes coexpressing EGFP assessed as inhibition of forskolin-induced cAMP production after 30 mins by fluorescence analysis; assay type: functional, cell-based
Apelin receptor [4] = target: T3, Apelin receptor (Rattus norvegicus, UniProt Q9JHG3); test: as §1; assay type: functional, cell-based
T3 sequence (Q9JHG3 whole entry): T1 sequence (whole entry)

[5] = target: T1, Apelin receptor (Rattus norvegicus); test: Agonist activity at rat apelin receptor expressed in CHO cell membranes coexpressing EGFP assessed as inhibition of forskolin-induced cAMP production after 30 mins by fluorescence analysis relative to control; assay type: functional, cell-based
[6] = Half life in mouse plasma at 5 uM at 37 degC by LC-MS analysis; assay type: ADME, cell-free
Apelin receptor [7] = target: T4, Apelin receptor (Homo sapiens, UniProt P35414); test: Displacement of [125I]-pE13F from human apelin receptor expressed in CHO cell membranes after 1 hr by gamma counting analysis
T4 sequence (P35414 whole entry): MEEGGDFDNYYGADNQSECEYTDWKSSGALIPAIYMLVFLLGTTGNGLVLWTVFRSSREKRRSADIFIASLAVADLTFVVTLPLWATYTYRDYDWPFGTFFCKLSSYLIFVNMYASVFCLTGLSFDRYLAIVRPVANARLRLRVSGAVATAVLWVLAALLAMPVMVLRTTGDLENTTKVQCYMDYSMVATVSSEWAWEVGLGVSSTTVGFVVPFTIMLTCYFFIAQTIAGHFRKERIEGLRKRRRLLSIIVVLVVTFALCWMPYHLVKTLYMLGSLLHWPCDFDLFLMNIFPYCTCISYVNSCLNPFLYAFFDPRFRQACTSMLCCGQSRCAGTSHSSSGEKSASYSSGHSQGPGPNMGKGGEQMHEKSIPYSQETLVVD

[8] = target: T1, Apelin receptor (Rattus norvegicus); test: Agonist activity at rat apelin receptor expressed in CHO cell membranes coexpressing EGFP assessed as receptor internalization at 100 uM after 20 mins by confocal microscopic analysis; assay type: cell-based
[9] = Dissociation constant, pKa of the compound in water at 2 mM by potentiometric titration analysis; assay type: physicochemical

Structure (SMILES)	Ki (Apelin receptor [7]) [µM]	Activity [8]	also measured
CSCC[C@H](NC(=O)[C@@H]1CCCN1C(=O)CNC(=O)[C@H](CCCCN)NC(=O)[C@H](Cc1cnc[nH]1)NC(=O)[C@H](CO)NC(=O)[C@H](CC(C)C)NC(=O)[C@H](CCCNC(=N)N)NC(=O)[C@@H]1CCCN1C(=O)[C@H](CCCNC(=N)N)NC(=O)[C@H](CCC(N)=O)NC(=O)[C@H](CCCNC(=N)N)NC(=O)[C@H](CCCNC(=N)N)NC(=O)[C@H](Cc1ccccc1)NC(=O)[C@@H](N)CCCCN)C(=O)N1CCC[C@H]1C(=O)N[C@@H](Cc1ccccc1)C(=O)O	–	–	Activity [1]: Active; Ki [2]: > 100 µM; inhibition [3]: Dose-dependent effect; IC50 (Apelin receptor [4]): 0.0014 µM; Imax [5]: 85%; half-life at 5 µM [6]: 0.0767 h
CCN(CC)c1ccc2c(-c3ccc(S(=O)(=O)NCCCCCCCCCCCCNC(=O)NCCCC[C@H](NC(=O)Cc4csc(=N)n4C)C(=O)N[C@@H](Cc4cn(Cc5ccccc5)c[n+]4C)C(=O)NC4CCN(C)CC4)cc3S(=O)(=O)O)c3ccc(=[N+](CC)CC)cc-3oc2c1 [listing 1 of 2 here]	0.69	–	Ki [2]: 2.23 µM; IC50 (Apelin receptor [4]): 4.3 µM; half-life at 5 µM [6]: > 10 h
CCN(CC)c1ccc2c(-c3ccc(S(=O)(=O)NCCCCCCCCCCCCNC(=O)NCCCC[C@H](NC(=O)Cc4csc(=N)[nH]4)C(=O)N[C@@H](Cc4cn(Cc5ccccc5)cn4)C(=O)NC4CCN(C)CC4)cc3S(=O)(=O)[O-])c3ccc(=[N+](CC)CC)cc-3oc2c1	9	–	–
CCN(CC)c1ccc2c(-c3ccc(S(=O)(=O)NCCCCCCCCCCCCNC(=O)NCCCC[C@H](NC(=O)Cc4csc(=N)n4C)C(=O)N[C@@H](Cc4cn(Cc5ccccc5)cn4)C(=O)NC4CC[N+](C)(C)CC4)cc3S(=O)(=O)O)c3ccc(=[N+](CC)CC)cc-3oc2c1	3	–	–
CCN(CC)c1ccc2c(-c3ccc(S(=O)(=O)NCCCC[C@H](NC(=O)Cc4csc(=N)n4C)C(=O)N[C@@H](Cc4cn(Cc5ccccc5)c[n+]4C)C(=O)NC4CCOCC4)cc3S(=O)(=O)[O-])c3ccc(=[N+](CC)CC)cc-3oc2c1	0.98	inactive	–
CCN(CC)c1ccc2c(-c3ccc(S(=O)(=O)NCCCC[C@H](NC(=O)Cc4csc(=N)n4C)C(=O)N[C@@H](Cc4cn(Cc5ccccc5)c[n+]4C)C(=O)NCC4CCN(C)CC4)cc3S(=O)(=O)[O-])c3ccc(=[N+](CC)CC)cc-3oc2c1	0.18	Active	–
COC(=O)Cc1csc(=N)n1C	–	–	pKa at 2000 µM [9]: 9.77
CCN(CC)c1ccc2c(-c3ccc(S(=O)(=O)NCCCC[C@H](NC(=O)Cc4csc(=N)n4C)C(=O)N[C@@H](C)C(=O)NC4CCN(C)CC4)cc3S(=O)(=O)[O-])c3ccc(=[N+](CC)CC)cc-3oc2c1	0.45	inactive	–
CCN(CC)c1ccc2c(-c3ccc(S(=O)(=O)NCCCCNCCCC[C@H](NC(=O)Cc4csc(=N)n4C)C(=O)N[C@@H](Cc4cn(Cc5ccccc5)c[n+]4C)C(=O)NC4CCN(C)CC4)cc3S(=O)(=O)O)c3ccc(=[N+](CC)CC)cc-3oc2c1	> 100	–	–
CCN(CC)c1ccc2c(-c3ccc(S(=O)(=O)NCCCC[C@H](NC(C)=O)C(=O)N[C@@H](Cc4cn(Cc5ccccc5)c[n+]4C)C(=O)NC4CCN(C)CC4)cc3S(=O)(=O)O)c3ccc(=[N+](CC)CC)cc-3oc2c1	1.2	–	–
CCN(CC)c1ccc2c(-c3ccc(S(=O)(=O)NCCCC[C@H](NC(=O)Cc4csc(=N)[nH]4)C(=O)N[C@@H](Cc4cn(Cc5ccccc5)c[n+]4C)C(=O)NC4CCN(C)CC4)cc3S(=O)(=O)[O-])c3ccc(=[N+](CC)CC)cc-3oc2c1	0.85	inactive	–
CCN(CC)c1ccc2c(-c3ccc(S(=O)(=O)NCCCCCCCCCCCCNC(=O)NCCCC[C@H](NC(=O)Cc4csc(=N)n4C)C(=O)N[C@@H](Cc4cn(Cc5ccccc5)c[n+]4C)C(=O)NC4CCN(C)CC4)cc3S(=O)(=O)O)c3ccc(=[N+](CC)CC)cc-3oc2c1 [listing 2 of 2 here]	0.43	–	–
CCN(CC)c1ccc2c(-c3ccc(S(=O)(=O)NCCCCCCCCCCCCNC(=O)NCCCC[C@H](NC(=O)Cc4csc(=N)n4C)C(=O)N[C@@H](Cc4cn(Cc5ccccc5)c[n+]4C)C(=O)NC4CCN(C)CC4)cc3S(=O)(=O)[O-])c3ccc(=[N+](CC)CC)cc-3oc2c1	–	Active	inhibition [3]: Dose-dependent effect; Imax [5]: 100%
CCN(CC)c1ccc2c(-c3ccc(S(=O)(=O)NCCCCCCNC(=O)NCCCC[C@H](NC(=O)Cc4csc(=N)n4C)C(=O)N[C@@H](Cc4cn(Cc5ccccc5)c[n+]4C)C(=O)NC4CCN(C)CC4)cc3S(=O)(=O)[O-])c3ccc(=[N+](CC)CC)cc-3oc2c1	0.31	Active	–
CCN(CC)c1ccc2c(-c3ccc(S(=O)(=O)NCCCC[C@H](NC(=O)Cc4csc(=N)n4C)C(=O)N[C@@H](Cc4cn(Cc5ccccc5)c[n+]4C)C(=O)N[C@@H](C)C(N)=O)cc3S(=O)(=O)O)c3ccc(=[N+](CC)CC)cc-3oc2c1	0.97	–	–
COC(=O)Cc1csc(N)n1	–	–	pKa at 2000 µM [9]: 4.83
CCN(CC)c1ccc2c(-c3ccc(S(=O)(=O)NCCCC[C@H](NC(=O)Cc4csc(=N)n4C)C(=O)N[C@@H](Cc4cn(Cc5ccccc5)cn4)C(=O)NC4CCN(C)CC4)cc3S(=O)(=O)[O-])c3ccc(=[N+](CC)CC)cc-3oc2c1	0.96	Active	–
CCN(CC)c1ccc2c(-c3ccc(S(=O)(=O)NCCCC[C@H](NC(=O)Cc4csc(=N)n4C)C(=O)N[C@@H](Cc4cn(Cc5ccccc5)c[n+]4C)C(=O)NC4CCN(Cc5ccccc5)CC4)cc3S(=O)(=O)[O-])c3ccc(=[N+](CC)CC)cc-3oc2c1	0.27	Active	–
CCN(CC)c1ccc2c(-c3ccc(S(=O)(=O)NCCCCCCCCCCCCNC(=O)NCCCC[C@H](NC(=O)Cc4csc(=N)n4C)C(=O)N[C@@H](Cc4cn(Cc5ccccc5)c[n+]4C)C(=O)NC4CC[N+](C)(C)CC4)cc3S(=O)(=O)O)c3ccc(=[N+](CC)CC)cc-3oc2c1	1.4	–	–
CCN(CC)c1ccc2c(-c3ccc(S(=O)(=O)NCCCC[C@H](NC(=O)Cc4csc(=N)n4C)C(=O)N[C@@H](Cc4cn(Cc5ccccc5)c[n+]4C)C(=O)NC4CCN(C)CC4)cc3S(=O)(=O)[O-])c3ccc(=[N+](CC)CC)cc-3oc2c1.O=C(O)C(F)(F)F.O=C(O)C(F)(F)F.O=C([O-])C(F)(F)F	0.4	Active	Ki [2]: > 1000 µM; inhibition [3]: Dose-dependent effect; IC50 (Apelin receptor [4]): 3 µM; Imax [5]: 77%; half-life at 5 µM [6]: > 10 h
CCN(CC)c1ccc(C(=C2C=CC(=[N+](CC)CC)C=C2)c2ccc(S(=O)(=O)NCCCC[C@H](NC(=O)Cc3csc(=N)n3C)C(=O)N[C@@H](Cc3cn(Cc4ccccc4)c[n+]3C)C(=O)NC3CCN(C)CC3)cc2S(=O)(=O)[O-])cc1.O=C(O)C(F)(F)F.O=C(O)C(F)(F)F.O=C([O-])C(F)(F)F	0.089	inactive	Ki [2]: 98 µM; inhibition [3]: Dose-dependent effect; IC50 (Apelin receptor [4]): 1.7 µM; Imax [5]: 69%; half-life at 5 µM [6]: > 10 h
CC(=O)NCCCC[C@H](NC(=O)Cc1csc(=N)n1C)C(=O)N[C@@H](Cc1cn(Cc2ccccc2)c[n+]1C)C(=O)NC1CCN(C)CC1	> 100	–	–
CCN(CC)c1ccc2c(-c3ccc(S(=O)(=O)NCCCCCCCCCCCCNC(=O)NCCCC[C@H](NC(=O)Cc4csc(=N)n4C)C(=O)N[C@@H](Cc4cn(Cc5ccccc5)cn4)C(=O)NC4CCN(C)CC4)cc3S(=O)(=O)[O-])c3ccc(=[N+](CC)CC)cc-3oc2c1	1.5	–	–
